Test results: patent publication US11807644B2 (PMV Pharmaceuticals, Inc., priority 2020, dated 2023)

biological target: T1, recombinant His-tag Y220C p53 DBD protein (Homo sapiens, UniProt P04637, Y220C); assay: In vitro DNA binding activity assay (TR-FRET): binding of His-tag Y220C p53 DBD to biotin-labeled consensus DNA; format: biochemical; conditions: SC150 = concentration to increase DNA binding by […], His-tag Y220C p53 DBD, biotin-labeled consensus DNA
T1 construct: recombinant His-tag Y220C p53 DBD protein (amino acids #˜94-312)
Description: DNA binding activity of the compounds was measured using a TR-FRET (Time-Resolved Fluorescence Resonance Energy Transfer) assay in which recombinant His-tag Y220C p53 DBD protein binds to biotin-labeled consensus DNA. Binding of recombinant His-tag Y220C p53 DBD protein and biotin-labeled consensus DNA was registered by the FRET (fluorescence resonance energy transfer) between allophycocyanin (APC) conjugated anti-His tag antibody and Europium-(Eu) conjugated Streptavidin.
The compounds of TABLES 1-9 (2 mM stock in dimethylsulfoxide) were diluted 3-fold in series in dimethylsulfoxide. 1.2 μL of a compound solution was added to each well of 384-well polypropylene black plates (NUNC). Thirty μL per well of 181 nM recombinant His-tag Y220C p53 DBD protein (amino acids #˜94-312; SEQ ID NO: 1) and 6.1 nM of APC conjugated anti-His tag antibody (Columbia Biosciences) in ice-cold Assay Buffer 1 (50 mM Tris-HCl, pH 7.4, 75 mM KCl, 0.75 mM DTT and 0.2 mg/ml, BSA) were added. As a background control. 30 μL of Assay Buffer 1 containing 6.1 nM of APC anti-His antibody (No Y220C protein) was also added into a second set of serially diluted compound plates. The samples were spun by centrifuge at 1,200 rpm (Eppendorf 5810R Plate centrifuge) for 1 minute and incubated at room temperature (20° C.) for 15 min. The samples were then further incubated at either 27° C. or 29° C. for 60 min. […] The samples were spun by centrifuge at 1,200 rpm for 1 min and incubated at room temperature (20° C.) for 20 min. Assay signals were monitored by reading excitation at 340 nm, and emission fluorescence at 615 nm and 665 nm on an Envision® reader. Normalized TR-FRET (time-resolved fluorescence resonance energy transfer) assay signal (Rn) was calculated by the formula: Rn=[(A−Ba−C×(D−Bd))/(D−Bd)]×(D−Bd) Wherein: • A is the fluorescence intensity of the sample at 665 nm; • D is the fluorescence intensity of the sample at 615 nm; • Ba and Bd are plate backgrounds at 665 nm and 615 nm, respectively; and • Dc is the fluorescence intensity of 0.67 nM Eu-SA in the assay buffer at 615 nm.
The cross-talk factor (C) was determined by the following formula: C=(Ac−Ba)/(Dc−Bd) wherein Ac is the fluorescence intensity of 0.67 nM Europium (Eu) conjugated Streptavidin in the assay buffer at 665 nm.

Question: `CN1CCC(Nc2cccc3c2cc(-c2noc(CNC(=O)c4ccc(Cl)cc4)n2)n3CC(F)(F)F)CC1` [Compound 148B, 4-chloro-N-[(3-{4-[(1-methylpiperidin-4-yl)amino]-1-(2,2,2-trifluoroethyl)-1H-indol-2-yl}-1,2,4-oxadiazol-5-yl)methyl]benzamide] was tested. Which “Y220C SC150 (μM)” value did it give?
Answer: * (* = 0 μM ≤ SC150 < 0.1 μM)

Question: For `COCCn1cccc1C(=O)NCc1nc(-c2cc3c(N[C@@H]4CCN(C)C[C@@H]4F)cccc3n2CC(F)(F)F)no1` [Compound 538B, N-{[3-(4-{[(3S,4R)-3-fluoro-1-methylpiperidin-4-yl]amino}-1-(2,2,2-trifluoroethyl)-1H-indol-2-yl)-1,2,4-oxadiazol-5-yl]methyl}-1-(2-methoxyethyl)-1H-pyrrole-2-carboxamide], which “Y220C SC150 (μM)” value is on record?
Answer: * (* = 0 μM ≤ SC150 < 0.1 μM)

Question: How did the “Y220C SC150 (μM)” value turn out when `CN1CCC(Nc2cccc3c2cc(-c2nnc(CNC(=O)[C@@H]4C[C@H]4C(=O)O)s2)n3CC(F)(F)F)CC1` (racemic) [Compound 76B, (+/−)-(1R,2R)-2-{[(5-{4-[(1-methylpiperidin-4-yl)amino]-1-(2,2,2-trifluoroethyl)-1H-indol-2-yl}-1,3,4-thiadiazol-2-yl)methyl]carbamoyl}cyclopropane-1-carboxylic acid] was run?
Answer: * (* = 0 μM ≤ SC150 < 0.1 μM)

Question: With `CN1CCC(Nc2cccc3c2cc(-c2cc(N)[nH]n2)n3CC(F)(F)F)CC1` [Compound 21B, 2-(5-amino-1H-pyrazol-3-yl)-N-(1-methylpiperidin-4-yl)-1-(2,2,2-trifluoroethyl)-1H-indol-4-amine] as the compound, how does the “Y220C SC150 (μM)” value read?
Answer: **** (**** = 1 μM ≤ SC150 < 10 μM)

Question: For `CN1CC[C@@H](Nc2cccc3c2cc(-c2noc(CNC(=O)c4cccc(N5CCOCC5)c4)n2)n3CC(F)(F)F)[C@@H](F)C1` [Compound 262B, N-{[3-(4-{[(3S,4R)-3-fluoro-1-methylpiperidin-4-yl]amino}-1-(2,2,2-trifluoroethyl)-1H-indol-2-yl)-1,2,4-oxadiazol-5-yl]methyl}-3-(morpholin-4-yl)benzamide], which “Y220C SC150 (μM)” value is on record?
Answer: * (* = 0 μM ≤ SC150 < 0.1 μM)

Question: How did the “Y220C SC150 (μM)” value turn out when `C[C@@H]1CN(C)CC[C@@H]1Nc1cccc2c1cc(-c1noc(CNC(=O)c3ccc(C(C)(C)O)s3)n1)n2CC(F)(F)F` (stereo in doubt) [Compound 515B, N-{[3-(4-{[(3R,4S)-1,3-dimethylpiperidin-4-yl]amino}-1-(2,2,2-trifluoroethyl)-1H-indol-2-yl)-1,2,4-oxadiazol-5-yl]methyl)-5-(2-hydroxypropan-2-yl)thiophene-2-carboxamide] was run?
Answer: * (* = 0 μM ≤ SC150 < 0.1 μM)

Question: How did the “Y220C SC150 (μM)” value turn out when `O=C(NCc1nc(-c2cc3c(NCC4CCC4)cccc3n2CC(F)(F)F)no1)C1CC1` [Compound 166B, N-[(3-{4-[(cyclobutylmethyl)amino]-1-(2,2,2-trifluoroethyl)-1H-indol-2-yl}-1,2,4-oxadiazol-5-yl)methyl]cyclopropanecarboxamide] was run?
Answer: ** (** = 0.1 μM ≤ SC150 < 0.5 μM)

Question: For `O=C(NCc1nc(-c2cc3c(NCC4CNC4)cccc3n2CC(F)(F)F)no1)C1CC1` [Compound 170B, N-{[3-(4-{[(432zetidine-3-yl)methyl]amino}-1-(2,2,2-trifluoroethyl)-1H-indol-2-yl)-1,2,4-oxadiazol-5-yl]methyl}cyclopropanecarboxamide], which “Y220C SC150 (μM)” value is on record?
Answer: * (* = 0 μM ≤ SC150 < 0.1 μM)

Question: How did the “Y220C SC150 (μM)” value turn out when `CN1CCC(Nc2cccc3c2cc(-c2nnc(CNC(=O)c4ccc(F)cc4)s2)n3CC(F)(F)F)CC1` [Compound 52B, 4-fluoro-N-[(5-{4-[(1-methylpiperidin-4-yl)amino]-1-(2,2,2-trifluoroethyl)-1H-indol-2-yl}-1,3,4-thiadiazol-2-yl)methyl]benzamide] was run?
Answer: * (* = 0 μM ≤ SC150 < 0.1 μM)

Question: Which “Y220C SC150 (μM)” value does the source give for `CN1CC[C@@H](Nc2cccc3c2cc(-c2noc(CNC(=O)c4ccsc4Cl)n2)n3CC(F)(F)F)[C@@H](F)C1` [Compound 215B, 2-chloro-N-{[3-(4-{[(3S,4R)-3-fluoro-1-methylpiperidin-4-yl]amino}-1-(2,2,2-trifluoroethyl)-1H-indol-2-yl)-1,2,4-oxadiazol-5-yl]methyl}thiophene-3-carboxamide] here?
Answer: * (* = 0 μM ≤ SC150 < 0.1 μM)

Question: Which “Y220C SC150 (μM)” value does the source give for `COCC1(c2cc(C(=O)NCc3nc(-c4cc5c(N[C@@H]6CCN(C)C[C@@H]6F)cccc5n4CC(F)(F)F)no3)cs2)CC1` [Compound 488B, N-{[3-(4-{[(3S,4R)-3-fluoro-1-methylpiperidin-4-yl]amino}-1-(2,2,2-trifluoroethyl)-1H-indol-2-yl)-1,2,4-oxadiazol-5-yl]methyl}-5-[1-(methoxymethyl)cyclopropyl]thiophene-3-carboxamide] here?
Answer: * (* = 0 μM ≤ SC150 < 0.1 μM)

Question: `CN1CC[C@@H](Nc2cccc3c2cc(-c2noc(CNC(=O)c4csc(N(C)C(C)(C)C)n4)n2)n3CC(F)(F)F)[C@@H](F)C1` [Compound 528B, 2-[tert-butyl(methyl)amino]-N-{[3-(4-{[(3S,4R)-3-fluoro-1-methylpiperidin-4-yl]amino}-1-(2,2,2-trifluoroethyl)-1H-indol-2-yl)-1,2,4-oxadiazol-5-yl]methyl}-1,3-thiazole-4-carboxamide] was tested. Which “Y220C SC150 (μM)” value did it give?
Answer: * (* = 0 μM ≤ SC150 < 0.1 μM)

Question: `Cn1ccc(C(=O)NCc2nc(-c3cc4c(N[C@H]5CCN(C(C)(C)C)C[C@H]5F)cccc4n3CC(F)(F)F)no2)c1` [Compound 398B, N-{[3-(4-{[(3R,4S)-1-tert-butyl-3-fluoropiperidin-4-yl]amino}-1-(2,2,2-trifluoroethyl)-1H-indol-2-yl)-1,2,4-oxadiazol-5-yl]methyl}-1-methyl-1H-pyrrole-3-carboxamide] was tested. Which “Y220C SC150 (μM)” value did it give?
Answer: * (* = 0 μM ≤ SC150 < 0.1 μM)

Question: For `CC(C)(C)n1ccc(C(=O)NCc2nc(-c3cc4c(N[C@@H]5CCOC[C@@H]5F)cccc4n3CC(F)(F)F)no2)c1` [Compound 493B, 1-tert-butyl-N-{[3-(4-{[(3R,4R)-3-fluorooxan-4-yl]amino}-1-(2,2,2-trifluoroethyl)-1H-indol-2-yl)-1,2,4-oxadiazol-5-yl]methyl}-1H-pyrrole-3-carboxamide], which “Y220C SC150 (μM)” value is on record?
Answer: * (* = 0 μM ≤ SC150 < 0.1 μM)

Question: With `CC(C)(C)n1cnc(C(=O)NCc2nc(-c3cc4c(N[C@@H]5CCN(C6CC6)C[C@@H]5F)cccc4n3CC(F)(F)F)no2)c1` [Compound 329B] as the compound, how does the “Y220C SC150 (μM)” value read?
Answer: * (* = 0 μM ≤ SC150 < 0.1 μM)

Question: `CO[C@H]1CCCC[C@@H]1n1cc(C(=O)NCc2nc(-c3cc4c(N[C@@H]5CCN(C)C[C@@H]5F)cccc4n3CC(F)(F)F)no2)cn1` (relative stereo) [Compound 385B] was tested. Which “Y220C SC150 (μM)” value did it give?
Answer: * (* = 0 μM ≤ SC150 < 0.1 μM)

Question: For `CCN1CC[C@H](Nc2cccc3c2cc(-c2noc(CNC(=O)c4ccn(CCOC)c4)n2)n3CC(F)(F)F)[C@H](F)C1` [Compound 273B, N-{[3-(4-{[(3R,4S)-1-ethyl-3-fluoropiperidin-4-yl]amino}-1-(2,2,2-trifluoroethyl)-1H-indol-2-yl)-1,2,4-oxadiazol-5-yl]methyl}-1-(2-methoxyethyl)-1H-pyrrole-3-carboxamide], which “Y220C SC150 (μM)” value is on record?
Answer: * (* = 0 μM ≤ SC150 < 0.1 μM)

Question: How did the “Y220C SC150 (μM)” value turn out when `COc1ccc(NCc2nc(-c3cc4c(N[C@@H]5CCN(C)C[C@@H]5F)cccc4n3CC(F)(F)F)no2)cc1` [Compound 380B, N-[(3S,4R)-3-fluoro-1-methylpiperidin-4-yl]-2-(5-{[(4-methoxyphenyl)amino]methyl}-1,2,4-oxadiazol-3-yl)-1-(2,2,2-trifluoroethyl)-1H-indol-4-amine] was run?
Answer: * (* = 0 μM ≤ SC150 < 0.1 μM)

same assay, conditions: concentration to increase DNA binding by […], incubated at either 27° C. or 29° C. for 60 min

Question: With `CS(=O)(=O)c1ccc(NCc2ccc(-c3cc4c(NC5CCN(C6CCOCC6)CC5)cccc4n3CC(F)(F)F)cc2)cc1` [Compound 30A, 2-(4-{[(4-methanesulfonylphenyl)amino]methyl}phenyl)-N-[1-(oxan-4-yl)piperidin-4-yl]-1-(2,2,2-trifluoroethyl)-1H-indol-4-amine] as the compound, how does the “SC150 (μM)” value read?
Answer: + (+ = 0 μM ≤ SC150 < 2 μM)

Question: For `O=S1(=O)CCC(Nc2cccc3c2cc(-c2ccc(Cl)cc2)n3CC(F)(F)F)CC1` [Compound 14A, 4-{[2-(4-chlorophenyl)-1-(2,2,2-trifluoroethyl)-1H-indol-4-yl]amino}-1λ^6-thiane-1,1-dione], which “SC150 (μM)” value is on record?
Answer: ++++ (++++ = 10 μM ≤ SC150 < 35 μM)
